Assay results taken from PubChem BioAssay (NCI).
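1) Cells in 96-well plates. 2) Compound, 48 h, 5 concentrations. 3) Linear interpolation between surrounding doses. 4) Unreached endpoint = highest concentration. TGI denotes the concentration required for complete inhibition of growth.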

Columns and labels:
Experiment in all cases: NCI-60 cell line screen, 48 h
[1] = tested on: SK-MEL-28 melanoma
[2] = tested on: HT29 colon
[3] = tested on: HCC-2998 colon
[4] = tested on: LOX IMVI melanoma
[5] = tested on: SF-295 CNS
[6] = tested on: SK-OV-3 ovarian
[7] = tested on: HL-60(TB) leukemia
[8] = tested on: COLO 205 colon
[9] = tested on: K-562 leukemia
[10] = tested on: MCF7 breast
[11] = tested on: SN12C renal
[12] = tested on: M14 melanoma
[13] = tested on: OVCAR-5 ovarian
[14] = tested on: MOLT-4 leukemia
[15] = tested on: SNB-75 CNS
[16] = tested on: CAKI-1 renal
[17] = tested on: UACC-257 melanoma
[18] = tested on: HOP-92 NSCLC
[19] = tested on: SNB-19 CNS
[20] = tested on: BT-549 breast
[21] = tested on: MDA-MB-435
[22] = tested on: SK-MEL-2 melanoma
[23] = tested on: UO-31 renal
[24] = tested on: RPMI-8226 leukemia
[25] = tested on: SF-268 CNS
[26] = tested on: IGROV1 ovarian
[27] = tested on: NCI-H23 lung
[28] = tested on: T-47D breast
[29] = tested on: TK-10 renal
[30] = tested on: A498 renal
[31] = tested on: NCI-H226 lung
[32] = tested on: OVCAR-4 ovarian
[33] = tested on: SR leukemia
[34] = tested on: UACC-62 melanoma
[35] = tested on: NCI/ADR-RES ovarian
[36] = tested on: A549 NSCLC
[37] = tested on: NCI-H460 lung
[38] = tested on: PC-3 prostate
[39] = tested on: KM12 colon
[40] = tested on: U251 CNS
[41] = tested on: HS 578T breast
[42] = tested on: MDA-MB-231 breast
[43] = tested on: NCI-H522 lung
[44] = tested on: HCT-116 colon
[45] = tested on: 786-0 renal
[46] = tested on: RXF 393 renal
[47] = tested on: SW-620 colon
[48] = tested on: HCT-15 colon
[49] = tested on: ACHN renal
[50] = tested on: MALME-3M melanoma
[51] = tested on: HOP-62 NSCLC
[52] = tested on: OVCAR-8 ovarian
[53] = tested on: SK-MEL-5 melanoma
[54] = tested on: OVCAR-3 ovarian
[55] = tested on: EKVX NSCLC
[56] = tested on: CCRF-CEM leukemia
[57] = tested on: DU-145 prostate
[58] = tested on: MDA-N
[59] = tested on: SF-539 CNS

O=C(NCc1ccccc1)c1cc2ccccc2oc1=Nc1ccccc1F
TGI [1]: > 100 µM
TGI [2]: > 100 µM
TGI [3]: 61.5 µM
TGI [4]: 37.3 µM
TGI [5]: > 100 µM
TGI [6]: 47.5 µM
TGI [7]: > 100 µM
TGI [8]: 74.4 µM
TGI [9]: > 100 µM
TGI [10]: > 100 µM
TGI [11]: 96.3 µM
TGI [12]: > 100 µM
TGI [13]: > 100 µM
TGI [14]: > 100 µM
TGI [15]: 45.5 µM
TGI [16]: 27.9 µM
TGI [17]: > 100 µM
TGI [18]: > 100 µM
TGI [19]: > 100 µM
TGI [20]: > 100 µM
TGI [21]: > 100 µM
TGI [22]: > 100 µM
TGI [23]: 36.1 µM
TGI [24]: > 100 µM
TGI [25]: > 100 µM
TGI [26]: > 100 µM
TGI [27]: 57.5 µM
TGI [28]: > 100 µM
TGI [29]: 36.7 µM
TGI [30]: > 100 µM
TGI [31]: 92.2 µM
TGI [32]: 76.7 µM
TGI [33]: > 100 µM
TGI [34]: > 100 µM
TGI [35]: > 100 µM
TGI [36]: 88.7 µM
TGI [37]: > 100 µM
TGI [38]: > 100 µM
TGI [39]: > 100 µM
TGI [40]: > 100 µM
TGI [41]: > 100 µM
TGI [42]: 47.3 µM
TGI [43]: > 100 µM
TGI [44]: > 100 µM
TGI [45]: 24.1 µM
TGI [46]: 84.5 µM
TGI [47]: > 100 µM
TGI [48]: > 100 µM
TGI [49]: 58.3 µM
TGI [50]: > 100 µM
TGI [51]: 39.8 µM
TGI [52]: 31.2 µM
TGI [53]: 51.9 µM
TGI [54]: > 100 µM
TGI [55]: > 100 µM
TGI [56]: > 100 µM
TGI [57]: > 100 µM
TGI [58]: > 100 µM

Cc1cc(S(=O)(=O)Nc2n[nH]c(-c3ccc(Cl)cn3)n2)c(S)cc1Cl
TGI [1]: > 100 µM
TGI [2]: > 100 µM
TGI [3]: > 100 µM
TGI [4]: > 100 µM
TGI [6]: > 100 µM
TGI [7]: > 100 µM
TGI [8]: > 100 µM
TGI [10]: > 100 µM
TGI [11]: > 100 µM
TGI [12]: > 100 µM
TGI [13]: > 100 µM
TGI [14]: > 100 µM
TGI [15]: > 100 µM
TGI [16]: > 100 µM
TGI [17]: > 100 µM
TGI [18]: > 100 µM
TGI [59]: > 100 µM
TGI [19]: 92.5 µM
TGI [20]: > 100 µM
TGI [21]: > 100 µM
TGI [22]: > 100 µM
TGI [23]: 99.4 µM
TGI [24]: > 100 µM
TGI [25]: > 100 µM
TGI [26]: > 100 µM
TGI [28]: > 100 µM
TGI [29]: > 100 µM
TGI [30]: > 100 µM
TGI [31]: > 100 µM
TGI [32]: > 100 µM
TGI [33]: > 100 µM
TGI [34]: > 100 µM
TGI [35]: > 100 µM
TGI [36]: > 100 µM
TGI [37]: > 100 µM
TGI [38]: > 100 µM
TGI [39]: > 100 µM
TGI [40]: > 100 µM
TGI [41]: 87.2 µM
TGI [42]: > 100 µM
TGI [43]: > 100 µM
TGI [44]: > 100 µM
TGI [45]: > 100 µM
TGI [46]: > 100 µM
TGI [47]: > 100 µM
TGI [48]: > 100 µM
TGI [49]: > 100 µM
TGI [50]: > 100 µM
TGI [51]: > 100 µM
TGI [52]: > 100 µM
TGI [53]: > 100 µM
TGI [54]: > 100 µM
TGI [55]: > 100 µM
TGI [57]: > 100 µM
TGI [58]: > 100 µM

Cc1ncc(-c2nnnn2-c2ccccc2)c(C(=O)O)n1
TGI [1]: > 100 µM
TGI [2]: > 100 µM
TGI [3]: > 100 µM
TGI [4]: > 100 µM
TGI [5]: > 100 µM
TGI [6]: > 100 µM
TGI [7]: > 100 µM
TGI [8]: > 100 µM
TGI [9]: > 100 µM
TGI [10]: > 100 µM
TGI [11]: > 100 µM
TGI [12]: > 100 µM
TGI [13]: > 100 µM
TGI [14]: > 100 µM
TGI [15]: > 100 µM
TGI [16]: > 100 µM
TGI [17]: > 100 µM
TGI [18]: > 100 µM
TGI [59]: > 100 µM
TGI [19]: > 100 µM
TGI [20]: > 100 µM
TGI [21]: > 100 µM
TGI [22]: > 100 µM
TGI [23]: > 100 µM
TGI [24]: > 100 µM
TGI [25]: > 100 µM
TGI [26]: > 100 µM
TGI [27]: > 100 µM
TGI [28]: > 100 µM
TGI [29]: > 100 µM
TGI [30]: > 100 µM
TGI [31]: > 100 µM
TGI [33]: > 100 µM
TGI [34]: > 100 µM
TGI [35]: > 100 µM
TGI [36]: > 100 µM
TGI [37]: > 100 µM
TGI [38]: > 100 µM
TGI [39]: > 100 µM
TGI [40]: > 100 µM
TGI [41]: > 100 µM
TGI [42]: > 100 µM
TGI [43]: > 100 µM
TGI [44]: > 100 µM
TGI [45]: > 100 µM
TGI [46]: > 100 µM
TGI [47]: > 100 µM
TGI [48]: > 100 µM
TGI [49]: > 100 µM
TGI [50]: > 100 µM
TGI [51]: > 100 µM
TGI [52]: > 100 µM
TGI [53]: > 100 µM
TGI [54]: > 100 µM
TGI [55]: > 100 µM
TGI [56]: > 100 µM
TGI [57]: > 100 µM
TGI [58]: > 100 µM
